“And” between values parts separate entries of the source, which are not always exact repeats. Identical values can stand only once.
Legend:
[1] = Colorimetric alkylation rate constant assay with TNB^2− as non-specific thiol; format: physicochemical; parameters: second-order: unit not given here; conditions: for remaining [B]: in µM
[2] = Colorimetric alkylation rate constant assay with thiol N1; format: physicochemical; conditions: for remaining [A]: N1 from calibration curve (N1 in uM); for remaining [A] / remaining [B]: in µM
[3] = Time 2891 sec, [B]0 = 250, Replicates 1-3
[4] = Time 3071 sec, [B]0 = 250, Replicates 1-3
[5] = Time 3252 sec, [B]0 = 250, Replicates 1-3
[6] = Time 3433 sec, [B]0 = 250, Replicates 1-3
[7] = Time 3613 sec, [B]0 = 250, Replicates 1-3

O=C(CCl)N1CCOCC1 [Compound C4]
remaining [B] ([1]; Replicate 1, 723 sec, [B]0 = 250): 243.209
remaining [B] ([1]; Replicate 1, 903 sec, [B]0 = 250): 242.478
remaining [B] ([1]; Replicate 1, 1084 sec, [B]0 = 250): 241.798
remaining [B] ([1]; Replicate 1, 1265 sec, [B]0 = 250): 241.104
remaining [B] ([1]; Replicate 1, 1445 sec, [B]0 = 250): 240.437
remaining [B] ([1]; Replicate 1, 1626 sec, [B]0 = 250): 239.756
remaining [B] ([1]; Replicate 1, 1806 sec, [B]0 = 250): 239.088
remaining [B] ([1]; Replicate 1, 1988 sec, [B]0 = 250): 238.42
remaining [B] ([1]; Replicate 1, 2168 sec, [B]0 = 250): 237.79
remaining [B] ([1]; Replicate 1, 2349 sec, [B]0 = 250): 237.085
remaining [B] ([1]; Replicate 1, 2530 sec, [B]0 = 250): 236.392
remaining [B] ([1]; Replicate 1, 2710 sec, [B]0 = 250): 235.737
remaining [B] ([1]; Replicate 2, 542 sec, [B]0=250): 242.118
remaining [B] ([1]; Replicate 2, 723 sec, [B]0=250): 241.425
remaining [B] ([1]; Replicate 2, 903 sec, [B]0=250): 240.732
remaining [B] ([1]; Replicate 2, 1084 sec, [B]0=250): 240.077
remaining [B] ([1]; Replicate 2, 1265 sec, [B]0=250): 239.371
remaining [B] ([1]; Replicate 2, 1445 sec, [B]0=250): 238.754
remaining [B] ([1]; Replicate 2, 1626 sec, [B]0=250): 238.023
remaining [B] ([1]; Replicate 2, 1806 sec, [B]0=250): 237.355
remaining [B] ([1]; Replicate 2, 1988 sec, [B]0=250): 236.687
remaining [B] ([1]; Replicate 2, 2168 sec, [B]0=250): 236.019
remaining [B] ([1]; Replicate 2, 2349 sec, [B]0=250): 235.377
remaining [B] ([1]; Replicate 2, 2530 sec, [B]0=250): 234.722
remaining [B] ([1]; Replicate 2, 2710 sec, [B]0=250): 234.041
remaining [B] ([1]; Replicate 3, 723 sec, [B]0=250): 243.07
remaining [B] ([1]; Replicate 3, 903 sec, [B]0=250): 242.352
remaining [B] ([1]; Replicate 3, 1084 sec, [B]0=250): 241.558
remaining [B] ([1]; Replicate 3, 1265 sec, [B]0=250): 240.878
remaining [B] ([1]; Replicate 3, 1445 sec, [B]0=250): 240.248
remaining [B] ([1]; Replicate 3, 1626 sec, [B]0=250): 239.542
remaining [B] ([1]; Replicate 3, 1806 sec, [B]0=250): 238.786
remaining [B] ([1]; Replicate 3, 1988 sec, [B]0=250): 238.244
remaining [B] ([1]; Replicate 3, 2168 sec, [B]0=250): 237.513
remaining [B] ([1]; Replicate 3, 2349 sec, [B]0=250): 236.921
remaining [B] ([1]; Replicate 3, 2530 sec, [B]0=250): 236.215
remaining [B] ([1]; Replicate 3, 2710 sec, [B]0=250): 235.51
second-order [1, 3]: 0.0007509 and 0.0006764 and 0.0006669
remaining [B] [1, 3]: 234.892 and 235.081 and 233.424
second-order [1, 4]: 0.000786 and 0.0007119 and 0.0007036
remaining [B] [1, 4]: 234.187 and 234.35 and 232.743
second-order [1, 5]: 0.0008202 and 0.000746 and 0.0007357
remaining [B] [1, 5]: 233.519 and 233.72 and 232.088
second-order [1, 6]: 0.0008541 and 0.0007785 and 0.0007706
remaining [B] [1, 6]: 232.889 and 233.04 and 231.445
second-order [1, 7]: 0.0008877 and 0.0008119 and 0.0008054
remaining [B] [1, 7]: 232.246
second-order ([1]; Time 3794 sec, [B]0 = 250, Replicates 1-3): 0.0009231 and 0.0008424 and 0.0008418
second-order ([1]; Time 3974 sec, [B]0 = 250, Replicates 1-3): 0.0009567 and 0.0008773 and 0.0008752
second-order ([1]; Time 4155 sec, [B]0 = 250, Replicates 1-3): 0.00099 and 0.0009118 and 0.0009131
second-order ([1]; Time 4336 sec, [B]0 = 250, Replicates 1-3): 0.001024 and 0.0009453 and 0.0009474
second-order ([1]; Time 4516 sec, [B]0 = 250, Replicates 1-3): 0.00106 and 0.0009785 and 0.000984
second-order ([1]; Time 4697 sec, [B]0 = 250, Replicates 1-3): 0.001096 and 0.001013 and 0.001019
second-order ([1]; Time 4878 sec, [B]0 = 250, Replicates 1-3): 0.001128 and 0.001047 and 0.001054
second-order ([1]; Time 5058 sec, [B]0 = 250, Replicates 1-3): 0.001163 and 0.00108 and 0.001089
second-order ([1]; Time 5239 sec, [B]0 = 250, Replicates 1-3): 0.001202 and 0.001118 and 0.001125
second-order ([1]; Time 5419 sec, [B]0 = 250, Replicates 1-3): 0.001235 and 0.001153 and 0.001158
second-order ([1]; Time 5600 sec, [B]0 = 250, Replicates 1-3): 0.001269 and 0.001184 and 0.001195
second-order ([1]; Time 5781 sec, [B]0 = 250, Replicates 1-3): 0.001306 and 0.001219 and 0.001231
second-order ([1]; Time 5961 sec, [B]0 = 250, Replicates 1-3): 0.001339 and 0.001252 and 0.001269
remaining [A] ([2]; Replicate 1, time 576 sec): 78.3846
remaining [B] ([2]; Replicate 1, time 576 sec, [B]0 = 250): 224.265
second-order ([2]; Replicate 1, time 576 sec, second-order plot value): 0.001202
remaining [A] ([2]; Replicate 1, time 606 sec): 77.4156
remaining [B] ([2]; Replicate 1, time 606 sec, [B]0 = 250): 223.296
second-order ([2]; Replicate 1, time 606 sec, second-order plot value): 0.001257
remaining [A] ([2]; Replicate 2, time 576 sec): 78.0283
remaining [B] ([2]; Replicate 2, time 576 sec, [B]0=250): 224.887
second-order ([2]; Replicate 2, time 576 sec, second-order plot value): 0.001179
remaining [A] ([2]; Replicate 2, time 606 sec): 77.1496
remaining [B] ([2]; Replicate 2, time 606 sec, [B]0=250): 224.008
second-order ([2]; Replicate 2, time 606 sec, second-order plot value): 0.00123
remaining [A] ([2]; Replicate 3, time 576 sec): 79.3863
remaining [B] ([2]; Replicate 3, time 576 sec, [B]0=250): 224.839
second-order ([2]; Replicate 3, time 576 sec, second-order plot value): 0.001164
remaining [A] ([2]; Replicate 3, time 606 sec): 78.4394
remaining [B] ([2]; Replicate 3, time 606 sec, [B]0=250): 223.892
second-order ([2]; Replicate 3, time 606 sec, second-order plot value): 0.001217
remaining [B] ([2]; time 0 sec, [B]0 = 250, replicates 1-3): 247.294 and 246.181 and 246.372
second-order ([2]; time 0 sec, replicates 1-3): 0.0001443 and 0.0001055 and 0.0001506
remaining [B] ([2]; time 30 sec, [B]0 = 250, replicates 1-3): 245.834 and 244.471 and 245.125
second-order ([2]; time 30 sec, replicates 1-3): 0.0001956 and 0.0001641 and 0.0002207
remaining [B] ([2]; time 60 sec, [B]0 = 250, replicates 1-3): 244.264 and 243.246 and 243.566
second-order ([2]; time 60 sec, replicates 1-3): 0.0002611 and 0.0002284 and 0.000272
remaining [B] ([2]; time 91 sec, [B]0 = 250, replicates 1-3): 243.074 and 241.878 and 242.29
second-order ([2]; time 91 sec, replicates 1-3): 0.0003157 and 0.0002781 and 0.0003304
remaining [B] ([2]; time 121 sec, [B]0 = 250, replicates 1-3): 241.802 and 240.652 and 241.043
second-order ([2]; time 121 sec, replicates 1-3): 0.0003702 and 0.0003322 and 0.0003836
remaining [B] ([2]; time 151 sec, [B]0 = 250, replicates 1-3): 240.639 and 239.37 and 239.711
second-order ([2]; time 151 sec, replicates 1-3): 0.0004294 and 0.0003825 and 0.0004404
remaining [B] ([2]; time 182 sec, [B]0 = 250, replicates 1-3): 239.367 and 238.23 and 238.549
second-order ([2]; time 182 sec, replicates 1-3): 0.0004821 and 0.0004386 and 0.0004918
remaining [B] ([2]; time 212 sec, [B]0 = 250, replicates 1-3): 238.15 and 237.033 and 237.472
second-order ([2]; time 212 sec, replicates 1-3): 0.0005317 and 0.0004932 and 0.0005467
remaining [B] ([2]; time 242 sec, [B]0 = 250, replicates 1-3): 236.878 and 235.893 and 236.139
second-order ([2]; time 242 sec, replicates 1-3): 0.0005943 and 0.0005514 and 0.0005999
remaining [B] ([2]; time 273 sec, [B]0 = 250, replicates 1-3): 235.688 and 234.696 and 235.147
second-order ([2]; time 273 sec, replicates 1-3): 0.0006417 and 0.0006068 and 0.0006568
remaining [B] ([2]; time 303 sec, [B]0 = 250, replicates 1-3): 234.525 and 233.67 and 234.042
second-order ([2]; time 303 sec, replicates 1-3): 0.0006954 and 0.000662 and 0.0007064
remaining [B] ([2]; time 333 sec, [B]0 = 250, replicates 1-3): 233.361 and 232.444 and 232.88
second-order ([2]; time 333 sec, replicates 1-3): 0.0007529 and 0.0007182 and 0.0007667
remaining [B] ([2]; time 364 sec, [B]0 = 250, replicates 1-3): 232.279 and 231.447 and 231.944
second-order ([2]; time 364 sec, replicates 1-3): 0.0007999 and 0.0007714 and 0.0008167
remaining [B] ([2]; time 394 sec, [B]0 = 250, replicates 1-3): 231.17 and 230.25 and 230.782
second-order ([2]; time 394 sec, replicates 1-3): 0.0008594 and 0.0008269 and 0.0008777
remaining [B] ([2]; time 424 sec, [B]0 = 250, replicates 1-3): 230.115 and 229.224 and 229.847
second-order ([2]; time 424 sec, replicates 1-3): 0.000908 and 0.0008806 and 0.000931
remaining [B] ([2]; time 454 sec, [B]0 = 250, replicates 1-3): 228.924 and 228.283 and 228.77
second-order ([2]; time 454 sec, replicates 1-3): 0.000965 and 0.0009423 and 0.0009806
remaining [B] ([2]; time 485 sec, [B]0 = 250, replicates 1-3): 227.977 and 227.229 and 227.834
second-order ([2]; time 485 sec, replicates 1-3): 0.001015 and 0.0009923 and 0.001037
remaining [B] ([2]; time 515 sec, [B]0 = 250, replicates 1-3): 226.922 and 226.203 and 226.814
second-order ([2]; time 515 sec, replicates 1-3): 0.001071 and 0.001049 and 0.001093
remaining [B] ([2]; time 545 sec, [B]0 = 250, replicates 1-3): 225.813 and 225.205 and 225.879
second-order ([2]; time 545 sec, replicates 1-3): 0.001123 and 0.001109 and 0.001148

— PMC12669040, “Tumour-specific STING agonist synthesis via a two-component prodrug system” (Nature Chemistry, 2025)
